Results: the NIST ThermoML archive (doi:10.1021/je050151n)
“And” between values parts separate entries of the source, which are not always exact repeats. Equal values may be shown once.

Tests used:
[1] = refractive index (Na D-line) (dimensionless); conditions: 293.15 K; 101.33 kPa; Liquid; Standard Abbe refractometry
[2] = 101.33 kPa, Liquid; for mass density: Vibrating tube method; for viscosity: Vibrating wire viscometry

CC(C)CCCCCCCOC(=O)c1ccccc1C(=O)OCCCCCCCC(C)C
Conditions	refractive index
[1]	1.4845

[2]
Conditions	mass density [kg/m3]	viscosity
283.16 K	973.52	267.36 mPa·s
288.26 K	969.85	176.04 mPa·s
293.21 K	966.38	123.07 mPa·s and 122.75 mPa·s
298.24 K	962.82	87.8 mPa·s
303.21 K	959.3	64.84 mPa·s
308.2 K	955.78	48.73 mPa·s
313.21 K	952.22	37.57 mPa·s
